According to US7928140B2, “Benzothiazole PI3 kinase modulators for cancer treatment” (Amgen Inc., priority 2007, dated 2011):

Experiments:
[1] = biological target: T1, PI3K α (Homo sapiens, UniProt P42336); test: In vitro PI3 kinase enzyme assay (alpha), ATP loss, bioluminescence; type: biochemical; settings: read-out: PI3Kα ATP loss IC50;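 note: purified p110α/p85 heterodimer acting on PtdIns(4,5)P2 at room temperature, remaining ATP read by luminescence, inhibition scaled between compound-free wells with and without enzyme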
T1 construct: Full length p110 subunits of PI3K α, β and δ, N-terminally labeled with polyHis tag; polyHis (N); made in house; host or cells: Sf9 insect cells (baculovirus)
T1 sequence (P42336 whole entry, species assumed): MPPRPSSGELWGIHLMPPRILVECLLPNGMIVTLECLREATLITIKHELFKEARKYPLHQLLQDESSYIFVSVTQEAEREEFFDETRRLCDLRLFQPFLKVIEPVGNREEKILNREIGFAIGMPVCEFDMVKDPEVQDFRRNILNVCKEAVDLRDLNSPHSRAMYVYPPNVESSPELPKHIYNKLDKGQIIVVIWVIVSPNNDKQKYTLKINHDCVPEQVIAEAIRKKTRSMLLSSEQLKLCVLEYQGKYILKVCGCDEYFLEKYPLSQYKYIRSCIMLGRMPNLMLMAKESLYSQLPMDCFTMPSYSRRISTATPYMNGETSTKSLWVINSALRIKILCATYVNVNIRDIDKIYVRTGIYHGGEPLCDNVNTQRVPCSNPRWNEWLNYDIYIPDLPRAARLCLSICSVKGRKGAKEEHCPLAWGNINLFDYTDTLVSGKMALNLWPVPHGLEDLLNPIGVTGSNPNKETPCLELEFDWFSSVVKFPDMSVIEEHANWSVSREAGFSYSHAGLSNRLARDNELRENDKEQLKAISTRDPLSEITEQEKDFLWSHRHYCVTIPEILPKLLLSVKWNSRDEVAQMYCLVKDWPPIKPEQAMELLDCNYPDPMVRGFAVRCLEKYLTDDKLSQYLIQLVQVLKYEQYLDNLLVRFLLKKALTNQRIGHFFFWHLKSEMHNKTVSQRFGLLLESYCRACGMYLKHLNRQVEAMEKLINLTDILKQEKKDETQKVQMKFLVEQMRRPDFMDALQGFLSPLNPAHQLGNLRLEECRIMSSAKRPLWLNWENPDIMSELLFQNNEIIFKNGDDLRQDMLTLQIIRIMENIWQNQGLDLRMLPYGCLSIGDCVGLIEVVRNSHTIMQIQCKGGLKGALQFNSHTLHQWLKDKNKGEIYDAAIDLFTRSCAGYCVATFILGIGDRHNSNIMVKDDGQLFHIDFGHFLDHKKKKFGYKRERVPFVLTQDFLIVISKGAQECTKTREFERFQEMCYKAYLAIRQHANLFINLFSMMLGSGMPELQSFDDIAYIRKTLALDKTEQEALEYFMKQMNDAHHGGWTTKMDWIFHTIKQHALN
T1 sequence (P27986 whole entry partner, species assumed): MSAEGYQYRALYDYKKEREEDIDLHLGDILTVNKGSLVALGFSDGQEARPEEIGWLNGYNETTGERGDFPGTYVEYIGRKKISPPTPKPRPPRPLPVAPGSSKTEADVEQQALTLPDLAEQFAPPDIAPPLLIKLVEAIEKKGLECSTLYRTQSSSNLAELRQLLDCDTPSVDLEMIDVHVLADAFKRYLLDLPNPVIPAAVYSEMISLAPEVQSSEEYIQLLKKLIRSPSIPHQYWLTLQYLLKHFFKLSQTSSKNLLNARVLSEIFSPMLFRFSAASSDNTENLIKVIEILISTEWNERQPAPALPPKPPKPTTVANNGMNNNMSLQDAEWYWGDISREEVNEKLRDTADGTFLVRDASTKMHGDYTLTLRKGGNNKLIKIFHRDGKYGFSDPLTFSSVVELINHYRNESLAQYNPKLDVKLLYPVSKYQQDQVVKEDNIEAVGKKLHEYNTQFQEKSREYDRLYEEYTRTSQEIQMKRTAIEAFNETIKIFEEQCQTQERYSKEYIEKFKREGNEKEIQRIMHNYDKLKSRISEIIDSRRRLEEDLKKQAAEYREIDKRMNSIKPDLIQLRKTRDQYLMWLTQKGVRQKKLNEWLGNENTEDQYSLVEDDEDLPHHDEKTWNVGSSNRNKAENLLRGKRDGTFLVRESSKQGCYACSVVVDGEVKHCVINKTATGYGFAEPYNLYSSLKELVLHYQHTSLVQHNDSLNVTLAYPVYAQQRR

[2] = biological target: T2, PI3K β (Homo sapiens, UniProt P42338); test: In vitro PI3 kinase enzyme assay (beta), ATP loss, bioluminescence; type: biochemical; settings: read-out: PI3Kβ ATP loss IC50;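 note: purified p110β/p85 heterodimer with PtdIns(4,5)P2 as acceptor, incubated at room temperature, leftover ATP read by luminescence, inhibition scaled to compound-free wells with and without enzyme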
T2 construct: Full length p110 subunits of PI3K α, β and δ, N-terminally labeled with polyHis tag; polyHis (N); made in house; host or cells: Sf9 insect cells (baculovirus)
T2 sequence (P42338 whole entry): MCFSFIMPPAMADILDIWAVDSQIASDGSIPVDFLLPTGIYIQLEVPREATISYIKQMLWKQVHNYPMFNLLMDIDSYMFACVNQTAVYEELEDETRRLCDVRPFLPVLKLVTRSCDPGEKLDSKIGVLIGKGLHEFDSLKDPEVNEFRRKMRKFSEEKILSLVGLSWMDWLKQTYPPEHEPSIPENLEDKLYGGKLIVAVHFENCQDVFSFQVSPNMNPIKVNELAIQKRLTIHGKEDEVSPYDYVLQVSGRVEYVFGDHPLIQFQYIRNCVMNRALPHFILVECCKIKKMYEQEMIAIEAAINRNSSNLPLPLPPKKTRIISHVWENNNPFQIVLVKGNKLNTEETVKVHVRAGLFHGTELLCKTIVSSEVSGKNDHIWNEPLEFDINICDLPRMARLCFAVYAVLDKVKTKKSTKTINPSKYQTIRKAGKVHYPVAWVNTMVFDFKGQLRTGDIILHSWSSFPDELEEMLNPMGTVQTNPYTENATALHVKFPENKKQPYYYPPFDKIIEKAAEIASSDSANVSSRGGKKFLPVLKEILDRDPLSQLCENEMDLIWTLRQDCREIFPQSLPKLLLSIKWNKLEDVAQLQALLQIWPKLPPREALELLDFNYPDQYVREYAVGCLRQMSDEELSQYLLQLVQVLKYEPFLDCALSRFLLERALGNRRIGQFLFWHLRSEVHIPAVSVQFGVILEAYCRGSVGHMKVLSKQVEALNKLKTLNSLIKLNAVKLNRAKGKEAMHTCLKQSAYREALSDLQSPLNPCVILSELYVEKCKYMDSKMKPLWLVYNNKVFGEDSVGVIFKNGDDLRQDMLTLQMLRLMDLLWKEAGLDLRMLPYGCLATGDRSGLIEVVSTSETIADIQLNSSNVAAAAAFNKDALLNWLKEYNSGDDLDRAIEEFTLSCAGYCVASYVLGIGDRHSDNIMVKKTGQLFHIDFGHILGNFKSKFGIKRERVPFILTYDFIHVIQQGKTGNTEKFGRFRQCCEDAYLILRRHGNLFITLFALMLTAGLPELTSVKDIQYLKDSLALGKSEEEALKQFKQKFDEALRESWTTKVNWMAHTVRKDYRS
T2 sequence (P27986 whole entry partner): as the sequence (P27986 whole entry partner, species assumed) above
Procedure: Full length p110 subunits of PI3K α, β and δ, N-terminally labeled with polyHis tag, were co-expressed with p85 in baculovirus expression vectors in sf9 insect cells. P110/p85 heterodimers were purified by sequential Ni-NTA, Q-HP, and Superdex-100 chromatography. Purified α, β and δ isozymes were stored at −20° C. in 20 mM Tris, pH 8, 0.2M NaCl, 50% glycerol, 5 mM DTT, 2 mM Na cholate.
PI3K enzyme assays (alpha, beta, delta and gamma) were performed in 25 mL with the above final concentrations of components in white polypropylene plates (Costar catalogue #3355). Phosphatidyl inositol phosphoacceptor, PtdIns(4,5)P2 (eg. P4508) was obtained from Echelon Biosciences. The ATPase activity of the alpha and gamma isozymes was not greatly stimulated by PtdIns(4,5)P2 under these conditions and was therefore omitted from the assay of these isozymes. Test compounds were dissolved in DMSO and diluted with three-fold serial dilutions. The compound in DMSO (1 μL) was added per test well, and the inhibition relative to reactions containing no compound, with and without enzyme was determined. After assay incubation at RT, the reaction was stopped and residual ATP determined by addition of an equal volume of a commercial ATP bioluminescence kit (Perkin Elmer EasyLite) according to the manufacturer's instructions, and detected using an Analyst GT luminometer.

[3] = tested on: phosphorylation of Serine 473 in Akt, HCT 116 human colon carcinoma cells; test: Cell-based phospho-AKT Ser473 assay (MSD sandwich immunoassay, IGF-1 stimulated); settings: Homo sapiens, HCT-116, HCT 116 cells; read-out: HCT 116 pAKT IC50
Procedure: This assay determines the ability of test compounds to inhibit the phosphorylation of […] in Akt using a MSD based sandwich immunoassay (Meso Scale Detection, catalogue # N411CAB-1). […] Prior to the assay cells were detached from the culture flask with trypsin, and re-suspended in complete media to give a final concentration of 1.6×10^5 cells per ml. Aliquots (100 μl) of the HCT116 cell suspension were seeded into each well of a 96 well tissue culture plate (Corning Incorporated COSTAR, catalogue#3595) to give a final density of 16,000 cells per well. Cells were then incubated overnight at 37° C. The following day the cells were treated with serially diluted test compounds and incubated for 2 hours at 37° C. […] As a maximum response control, wells contained 0.5% DMSO in place of test compound. The plates were mixed at 700 rpm for 2 min to ensure even distribution of the test compound and incubated for 2 hours at 37° C. Cells were then stimulated with insulin-like growth factor 1 (Sigma, product #13769) at final concentration of 100 ng/ml for 15 minutes at 37° C. The media was then removed and the cells treated with 80 μl cell-lysis buffer (MSD) containing a cocktail of protease and phosphatase inhibitors for one hour at 4° C. […] The detection antibody was removed and plates were then washed four times with 200 μl per well of Tris wash buffer. An aliquot of 150 μl of diluted MSD read buffer was then applied to each well, and the electrochemiluminescent signal was measured using a MSD SECTORTM plate reader. This instrument measures the intensity of emitted light to determine a quantitative measure of phosphorylated Akt in each well. The dose-response data obtained with each compound were analyzed and the IC50 inhibition of Akt phosphorylation at Ser473 calculated.

| SMILES | IC50 [1] [nM] | IC50 [2] [nM] | IC50 [3] [nM] |
| --- | --- | --- | --- |
| CC(=O)Nc1nc2ccc(-c3cncc(NS(=O)(=O)c4ccc(C(C)O)cc4)c3)cc2s1 (stereo not drawn) [Example 259, N-(6-(5-(4-(1-hydroxyethyl)phenylsulfonamido)pyridin-3-yl)benzo[d]thiazol-2-yl)acetamide] | 12.1 | 32.2 | 388 |
| CC(=O)Nc1nc2ccc(-c3cncc(OCc4ccccc4)n3)cc2s1 [Example 135, N-(6-(6-(benzyloxy)-2-pyrazinyl)-1,3-benzothiazol-2-yl)acetamide] | 54.2 | 219 | 1970 |
| CC(=O)Nc1nc2ccc(-c3cnc(Cl)c(NS(=O)(=O)c4cccc(F)c4)c3)cc2s1 [Example 183, N-(6-(6-chloro-5-(3-fluorophenylsulfonamido)pyridin-3-yl)benzo[d]thiazol-2-yl)acetamide] |  | 10.4 | 16.9 |
| CSc1nccc(-c2ccc3nc(NC(C)=O)sc3c2)n1 [Example 50, N-(6-(2-(methylsulfanyl)-4-pyrimidinyl)-1,3-benzothiazol-2-yl)acetamide] |  | 1180 | 1050 |
| CC(=O)Nc1nc2ccc(-c3cnc(Cl)c(F)c3)cc2s1 [Example 238, N-(6-(6-chloro-5-fluoropyridin-3-yl)benzo[d]thiazol-2-yl)acetamide] | 250 |  | 1490 |
| CC(=O)Nc1nc2ccc(-c3ccnc(SCc4ccccc4)n3)cc2s1 [Example 19, N-(6-(2-(benzylsulfanyl)-4-pyrimidinyl)-1,3-benzothiazol-2-yl)acetamide] |  | 184 | 670 |
| CC(=O)Nc1nc2ccc(-c3ccnc(NS(=O)(=O)c4cccc(F)c4)n3)cc2s1 [Example 82, N-(6-(2-(((3-fluorophenyl)sulfonyl)amino)-4-pyrimidinyl)-1,3-benzothiazol-2-yl)acetamide] |  | 304 | 3900 |
| CC(=O)Nc1nc2ccc(-c3cccc(N(C)S(=O)(=O)c4ccc(C)cc4)n3)cc2s1 [Example 74, N-(6-(6-(N,4-Dimethylphenylsulfonamido)pyridin-2-yl)benzo[d]thiazol-2-yl)acetamide] |  | 202 | 85.9 |
| COc1cc(-c2ccc3nc(NC(C)=O)sc3c2)cnc1Br [Example 237, N-(6-(6-bromo-5-methoxypyridin-3-yl)benzo[d]thiazol-2-yl)acetamide] | 8370 |  | > 5000 |
| CC(=O)Nc1nc2ccc(-c3ccnc(OCCCc4cccnc4)n3)cc2s1 [Example 1, N-(6-(2-(3-(pyridin-3-yl)propoxy)pyrimidin-4-yl)benzo[d]thiazol-2-yl)acetamide] |  | 3610 | 1350 |
| COc1ccc(S(=O)(=O)Nc2cc(-c3ccc4nc(NC(C)=O)sc4c3)ccn2)cc1 [Example 217, N-(6-(2-(4-methoxyphenylsulfonamido)pyridin-4-yl)benzo[d]thiazol-2-yl)acetamide] |  | 117 | 71.1 |
| CC(=O)Nc1nc2ccc(-c3ccnc(NS(=O)(=O)c4ccccc4F)n3)cc2s1 [Example 81, N-(6-(2-(((2-fluorophenyl)sulfonyl)amino)-4-pyrimidinyl)-1,3-benzothiazol-2-yl)acetamide] |  | 103 | 4950 |
| CC(=O)Nc1nc2ccc(-c3cnc(Cl)c(NS(=O)(=O)c4cccc(C(C)(C)C)c4)c3)cc2s1 [Example 173, N-(6-(5-(3-tert-butylphenylsulfonamido)-6-chloropyridin-3-yl)benzo[d]thiazol-2-yl)acetamide] |  | 6.9 | 5.1 |
| CC(=O)Nc1nc2ccc(-c3cnc(Cl)c(NS(=O)(=O)c4ccccc4)c3)cc2s1 [Example 181, N-(6-(6-chloro-5-(phenylsulfonamido)pyridin-3-yl)benzo[d]thiazol-2-yl)acetamide] |  | 14.5 | 10.4 |
| CC(=O)Nc1nc2ccc(-c3ccnc(N(C)S(=O)(=O)c4ccc(C)cc4)n3)cc2s1 [Example 90, N-(6-(2-(N,4-Dimethylphenylsulfonamido)pyrimidin-4-yl)benzo[d]thiazol-2-yl)acetamide] |  | 48.8 | 51.6 |
| COc1ccc(S(=O)(=O)Nc2cncc(-c3ccc4nc(NC(C)=O)sc4c3)c2)cc1 [Example 195, N-(6-(5-(4-methoxyphenylsulfonamido)pyridin-3-yl)benzo[d]thiazol-2-yl)acetamide] |  | 21.7 | 32.8 |
| CC(=O)Nc1nc2ccc(-c3ccnc(Sc4cccc(F)c4)n3)cc2s1 [Example 109, N-(6-(2-((3-fluorophenyl)sulfanyl)-4-pyrimidinyl)-1,3-benzothiazol-2-yl)acetamide] |  | 120 | 1840 |
| CC(=O)Nc1nc2ccc(-c3ccnc(OCc4cccc(F)c4)n3)cc2s1 [Example 12, N-(6-(2-((3-fluorobenzyl)oxy)-4-pyrimidinyl)-1,3-benzothiazol-2-yl)acetamide] |  | 3960 | 3930 |
| COc1ccc(S(=O)(=O)Nc2cc(-c3ccc4nc(NC(C)=O)sc4c3)cnc2C)cc1 [Example 116, N-(6-(5-(((4-methoxyphenyl)sulfonyl)amino)-6-methyl-3-pyridinyl)-1,3-benzothiazol-2-yl)acetamide] |  | 12 | 9.3 |
| CC(=O)Nc1nc2ccc(-c3cnc(Cl)c(NS(=O)(=O)c4cccc(C(F)(F)F)c4)c3)cc2s1 [Example 172, N-(6-(6-chloro-5-(3-(trifluoromethyl)phenylsulfonamido)pyridin-3-yl)benzo[d]thiazol-2-yl)acetamide] |  | 6.9 | 7 |
| CC(=O)Nc1nc2ccc(-c3cnc(Cl)c(NS(=O)(=O)c4ccc(C(C)(C)C)cc4)c3)cc2s1 [Example 191, N-(6-(5-(4-tert-butylphenylsulfonamido)-6-chloropyridin-3-yl)benzo[d]thiazol-2-yl)acetamide] |  | 4.2 | 2.6 |
| COc1ccc(S(=O)(=O)Nc2cncc(-c3ccc4nc(NC(C)=O)sc4c3)n2)cc1 [Example 118, N-(6-(6-(((4-methoxyphenyl)sulfonyl)amino)-2-pyrazinyl)-1,3-benzothiazol-2-yl)acetamide] |  | 17.9 | 147 |
| COc1ccc(S(=O)(=O)Nc2nccc(-c3ccc4nc(NC(C)=O)sc4c3)n2)cc1 [Example 78, N-(6-(2-(((4-methoxyphenyl)sulfonyl)amino)-4-pyrimidinyl)-1,3-benzothiazol-2-yl)acetamide] |  | 67.2 | 428 |
| CC(=O)Nc1nc2ccc(-c3ccnc(Sc4ccccc4C)n3)cc2s1 [Example 34, N-(6-(2-((2-methylphenyl)sulfanyl)-4-pyrimidinyl)-1,3-benzothiazol-2-yl)acetamide] |  | 1090 | 2160 |
| Nc1nc2ccc(-c3cnc(Cl)c(NS(=O)(=O)c4ccc(F)cc4)c3)cc2s1 [Example 192, N-(5-(2-aminobenzo[d]thiazol-6-yl)-2-chloropyridin-3-yl)-4-fluorobenzenesulfonamide] |  | 11.6 | 151 |
| CC(=O)Nc1nc2ccc(-c3ccnc(N(C)S(=O)(=O)c4ccccc4F)n3)cc2s1 [Example 92, N-(6-(2-(2-Fluoro-N-methylphenylsulfonamido)pyrimidin-4-yl)benzo[d]thiazol-2-yl)acetamide] |  | 310 | 888 |
